Laboratory results: patent US20230141988A1, “PHARMACEUTICAL COMPOSITION FOR USE IN THE TREATMENT OF NEUROLOGICAL DISEASES” (Aclipse One Inc., priority 2020, published 2023)
Several values for one entry are separate records, joined by “and”; a condition that tells them apart may be missing. Identical values can stand only once. Like-named read-outs stand apart in the source and are kept apart here.

Test: Plasma and CSF pharmacokinetic study, single sublingual, oral or subcutaneous dose, male Beagle dogs
Type: in vivo
Protocol: Animals were fed twice daily. […] Food was withheld until 4-hour post-dose.
All blood samples were collected from a peripheral vessel.
For CSF collection, a polypropylene tube was first weighted to accuracy of 0.1 mg (weight #1). CSF was collected in the tube and weighted again (weight #2). Total CSF weight was calculated by subtracting weight #1 from weight #2. Samples were kept on ice and protected from sunlight. Stabilizing agent (ascorbic acid 200 mg/mL) was added within 60 minutes in a proportion of 10% in CSF. Frozen CSF samples on dry ice were stored at −60° C. or lower until bioanalysis.
All CSF samples were added with the equal volume of plasma. […] 30 μL supernatant was then mixed with 30 μL water, vortex-mixed well and centrifuged at 4° C.
Dilution procedure description: Dilution factor as 5—An aliquot of 2 μL sample was added with 8 μL blank matrix.
The flow rate was 0.6 mL/min. The injection volume was 3 μL. The following gradient was implemented: […]

[1] = male Beagle dogs (fasted), single SL 5 mg/kg, plasma, individual dogs
[2] = male, beagle, dog, in vivo, 5 mg/kg, CSF concentration
[3] = male, beagle, dog, in vivo, 5 mg/kg, plasma concentration
[4] = male, beagle, dog, in vivo, po, 10 mg/kg, CSF concentration
[5] = male, beagle, dog, in vivo, po, 10 mg/kg, plasma concentration
[6] = male, beagle, dog, in vivo, sc, 1 mg/kg, CSF concentration
[7] = male, beagle, dog, in vivo, sc, 1 mg/kg, plasma concentration

Q: Which results are given for `CN1CCc2cccc3c2[C@@H]1Cc1ccc(O)c(O)c1-3`?
A: MRT inf (dog, in vivo, male Beagle dogs (fasted), single PO 10 mg/kg, plasma, individual dogs): 8.44 h; MRT inf (dog, in vivo, male Beagle dogs (fasted), single SL 5 mg/kg, CSF, mean): 3.18 h; Kp (dog, in vivo, male Beagle dogs (fasted), single SL 5 mg/kg, individual dogs, read-out: AUC Ratio (AUClast ratio of CSF to total plasma)): 0.337; AUC(0-inf) (dog, in vivo, male Beagle dogs (fasted), single SL 5 mg/kg, plasma, mean, read-out: AUCinf): 162 ng·h/mL; AUMCExtra (male Beagle dogs (fasted), single PO 10 mg/kg, plasma, individual dogs, 10 mg/kg): 31.9%; AUMCExtra (male Beagle dogs (fasted), single SL 5 mg/kg, CSF, individual dogs): 5.44% and 18.5%; AUCExtra [1]: 7.39%; AUMCExtra [1]: 10.7%; AUC(0-inf) (male, beagle, dog, CSF, po, 10 mg/kg, male Beagle dogs (fasted), single PO 10 mg/kg, CSF, individual dogs, read-out: AUCinf): 181 ng·h/mL; Kp (male, beagle, dog, in vivo, 5 mg/kg, AUClast ratio of CSF to total plasma): 1.08 ± 0.964; concentration at 2 h [2]: 76.2 ng/mL; concentration at […] [2]: 289 ng/mL; AUC(0-t) (male, beagle, dog, in vivo, 5 mg/kg, male Beagle dogs (fasted), single SL 5 mg/kg, CSF, individual dogs): 122 ng·h/mL; AUC(0-t) (male, beagle, dog, in vivo, 5 mg/kg, male Beagle dogs (fasted), single SL 5 mg/kg, CSF, mean): 162 ng·h/mL; Cmax (male, beagle, dog, in vivo, 5 mg/kg, male Beagle dogs (fasted), single SL 5 mg/kg, plasma, individual dogs, read-out: Cmax): 162 ng/mL; Cmax (male, beagle, dog, in vivo, 5 mg/kg, maximum CSF concentration (Cmax)): 126 ± 144 ng/mL; Cmax (male, beagle, dog, in vivo, 5 mg/kg, maximum plasma concentration (Cmax)): 143 ± 24 ng/mL; concentration at 0.5 h [3]: 162 ng/mL; concentration at 1 h [3]: 116 ng/mL; concentration at 2 h [3]: 10.8 ng/mL; concentration at 4 h [3]: 3.39 ng/mL; concentration at 8 h [3]: 2.74 ng/mL; concentration at […] [3]: 151 ng/mL; concentration at 0.5 h (male, beagle, dog, in vivo, 5 mg/kg, single SL 5 mg/kg, 0.500 h, individual animal, read-out: CSF concentration): 6.23 ng/mL; concentration at 8 h (male, beagle, dog, in vivo, 5 mg/kg, single SL 5 mg/kg, 8.00 h, individual animal, read-out: CSF concentration): 1.16 ng/mL; concentration at 24 h (male, beagle, dog, in vivo, 5 mg/kg, single SL 5 mg/kg, 24.0 h, individual animal, read-out: plasma concentration): 1.49 ng/mL; plasma concentration (male, beagle, dog, in vivo, po, 10 mg/kg, 1 h): 63.3 ng/mL; Kp (male, beagle, dog, in vivo, po, 10 mg/kg, AUC Ratio (AUClast ratio of CSF to total plasma)): 0.33; Kp (male, beagle, dog, in vivo, po, 10 mg/kg, AUClast ratio of CSF to total plasma): 0.27 ± 0.0663; concentration at 0.5 h [4]: 48.5 ng/mL; concentration at 4 h [4]: 8.15 ng/mL; concentration at […] [4]: 24.7 ng/mL; Tmax (male, beagle, dog, in vivo, po, 10 mg/kg, Tmax): 0.5 h; Cmax (male, beagle, dog, in vivo, po, 10 mg/kg, male Beagle dogs (fasted), single PO 10 mg/kg, plasma, individual dogs, read-out: Cmax): 84.8 ng/mL; concentration at 0.5 h [5]: 78 ng/mL; concentration at 1 h [5]: 42.2 ng/mL; concentration at 2 h [5]: 22.9 ng/mL; concentration at 4 h [5]: 15.6 ng/mL; concentration at 8 h [5]: 9.36 ng/mL; concentration at 24 h [5]: 4.5 ng/mL; concentration at […] [5]: 9.2 ng/mL; concentration at 0.5 h (male, beagle, dog, in vivo, po, 10 mg/kg, single PO 10 mg/kg, 0.500 h, individual animal, read-out: CSF concentration): 17.8 ng/mL; concentration at 4 h (male, beagle, dog, in vivo, po, 10 mg/kg, single PO 10 mg/kg, 4.00 h, individual animal, read-out: CSF concentration): 12.4 ng/mL; plasma concentration (male, beagle, dog, in vivo, sc, 1 mg/kg, 1 h): 20.7 ng/mL; plasma concentration (male, beagle, dog, in vivo, sc, 1 mg/kg, 2 h): 2.17 ng/mL; Kp (male, beagle, dog, in vivo, sc, 1 mg/kg, AUC Ratio): 0.806; AUC(0-inf) (male, beagle, dog, in vivo, sc, 1 mg/kg, AUCinf): 88.4 ± 23.8 ng·h/mL; Kp (male, beagle, dog, in vivo, sc, 1 mg/kg, AUClast ratio of CSF to total plasma): 0.964 ± 0.456; concentration at 0.033 h [6]: 1.73 ng/mL; concentration at 0.5 h [6]: 15.6 ng/mL; concentration at 2 h [6]: 6.55 ng/mL; concentration at 8 h [6]: 10.8 ng/mL; AUC(0-t) (male, beagle, dog, in vivo, sc, 1 mg/kg, CSF, single SC 1 mg/kg, individual animal): 119 ng·h/mL; Cmax (male, beagle, dog, in vivo, sc, 1 mg/kg, plasma Cmax): 110 ± 19.4 ng/mL; concentration at 0.5 h [7]: 76.6 ng/mL; concentration at 1 h [7]: 27.9 ng/mL; concentration at 2 h [7]: 3.58 ng/mL; concentration at 4 h [7]: 1.11 ng/mL; concentration at 24 h [7]: 1.04 ng/mL; concentration at […] [7]: 89.2 ng/mL; Cmax (male, beagle, dog, in vivo, sc, 1 mg/kg, plasma, single SC 1 mg/kg, individual animal, read-out: Cmax): 113 ng/mL; concentration at 0.033 h (male, beagle, dog, in vivo, sc, 1 mg/kg, single SC 1 mg/kg, 119 s, individual animal, read-out: CSF concentration): 22.6 ng/mL; concentration at 0.033 h (male, beagle, dog, in vivo, sc, 1 mg/kg, single SC 1 mg/kg, 119 s, mean, read-out: CSF concentration): 12.2 ng/mL; concentration at 0.5 h (male, beagle, dog, in vivo, sc, 1 mg/kg, single SC 1 mg/kg, 0.500 h, individual animal, read-out: CSF concentration): 17.8 ng/mL; concentration at 1 h (male, beagle, dog, in vivo, sc, 1 mg/kg, single SC 1 mg/kg, 1.00 h, individual animal, read-out: plasma concentration): 11.9 ng/mL; concentration at 1 h (male, beagle, dog, in vivo, sc, 1 mg/kg, single SC 1 mg/kg, 1.00 h, mean, read-out: CSF concentration): 11.6 ng/mL; concentration at 2 h (male, beagle, dog, in vivo, sc, 1 mg/kg, single SC 1 mg/kg, 2.00 h, individual animal, read-out: CSF concentration): 12.8 ng/mL; concentration at 4 h (male, beagle, dog, in vivo, sc, 1 mg/kg, single SC 1 mg/kg, 4.00 h, individual animal, read-out: CSF concentration): 10.2 ng/mL; concentration at 8 h (male, beagle, dog, in vivo, sc, 1 mg/kg, single SC 1 mg/kg, 8.00 h, individual animal, read-out: CSF concentration): 4.37 ng/mL; Kp (male, beagle, dog, in vivo, AUClast ratio of CSF to total plasma, single SC 1 mg/kg, individual animal, read-out: AUC Ratio): 1.48; AUC(0-t) (male, beagle, dog, plasma, 5 mg/kg, male Beagle dogs (fasted), single SL 5 mg/kg, individual dogs): 165 ng·h/mL; AUC(0-inf) (male, beagle, dog, plasma, 5 mg/kg, male Beagle dogs (fasted), single SL 5 mg/kg, plasma, individual dogs, read-out: AUCinf): 178 ng·h/mL; AUC(0-inf) (male, beagle, dog, plasma, sc, 1 mg/kg, plasma, single SC 1 mg/kg, individual animal, read-out: AUCinf): 115 ng·h/mL
